Test results from patent publication US10597388B2, “Pyridazinone herbicides” (FMC CORPORATION, priority 2014, dated 2020).

Key:
Type in all cases: in vivo
[1] = tested on: kochia (Kochia scoparia); test: Test C greenhouse herbicide test, postemergence
Procedure, shortened: (§1)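 Ratings are visual scores from 0 (no effect) to 100 (complete control), made against controls 13–15 d after treatment. Postemergence sprays were applied in the greenhouse to plants 2–18 cm tall (1- to 4-leaf stage) in peat-moss/vermiculite potting medium.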

[2] = tested on: chickweed (common chickweed, Stellaria media); test: Test C greenhouse herbicide test, postemergence
Procedure, shortened: as §1

[3] = tested on: oat, wild (wild oat, Avena fatua); test: Test C greenhouse herbicide test, postemergence
Procedure, shortened: as §1

[4] = tested on: ragweed (common ragweed, Ambrosia elatior); test: Test C greenhouse herbicide test, pre- and postemergence
Procedure, shortened: (§2)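 Greenhouse pots; pre-em on seeded loam:sand blend, post-em on 2–18 cm plants (1–4 leaf) in sphagnum peat/vermiculite medium. Formulation: non-phytotoxic solvent + surfactant. Read-out: visual % control (0–100) vs controls at 13–15 d.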

[5] = tested on: pigweed (Amaranthus retroflexus); test: as above
Procedure, shortened: as §2

[6] = tested on: barnyardgrass (Echinochloa crus-galli); test: as above
Procedure, shortened: as §2

[7] = tested on: soybean (Glycine max); test: as above
Procedure, shortened: as §2

[8] = tested on: galium (catchweed bedstraw, Galium aparine); test: as above
Procedure, shortened: as §2

[9] = tested on: velvetleaf (Abutilon theophrasti); test: as above
Procedure, shortened: as §2

[10] = tested on: ryegrass, Italian (Italian ryegrass, Lolium multiflorum); test: as above
Procedure, shortened: as §2

[11] = tested on: nutsedge, yellow (yellow nutsedge, Cyperus esculentus); test: as above
Procedure, shortened: as §2

[12] = tested on: blackgrass (Alopecurus myosuroides); test: as above
Procedure, shortened: as §2

[13] = tested on: galium (catchweed bedstraw, Galium aparine); test: Test A greenhouse herbicide test, postemergence
Procedure, shortened: (§3)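 Scores are visual injury ratings from 0 (no effect) to 100 (complete control) versus untreated plants, taken roughly 10 d after treatment in the greenhouse. Treatment was postemergence, on one- to two-leaf plants 2–10 cm high growing in a loam soil/sand mix.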

[14] = tested on: blackgrass (Alopecurus myosuroides); test: Test A greenhouse herbicide test, postemergence
Procedure, shortened: as §3

[15] = Postemergence, 31 g ai/ha, 0 to 100 scale (0 no effect, 100 complete control)
[16] = Postemergence, 125 g ai/ha, scale 0 to 100, 0 is no effect, 100 is complete control
[17] = Postemergence, 250 g ai/ha, scale 0 to 100, 0 no effect, 100 complete control, 13 to 15 d
[18] = postemergence, 62 g ai/ha, scale 0 to 100, 0 no effect, 100 complete control
[19] = Preemergence, 31 g ai/ha, scale 0 to 100, 0 is no effect, 100 is complete control
[20] = Preemergence, 62 g ai/ha, scale 0 to 100, 0 is no effect, 100 is complete control
[21] = Preemergence, 125 g ai/ha, scale 0 to 100, 0 is no effect, 100 is complete control
[22] = Preemergence, 250 g ai/ha, scale 0 to 100, 0 no effect, 100 complete control
[23] = 125 g ai/ha, 0 to 100 scale where 0 is no effect and 100 is complete control
[24] = 500 g ai/ha, 0 to 100 scale, 0 is no effect, 100 is complete control

SMILES: Cc1ccc2sc(C)c(-c3c(OC(=O)OC(C)C)c(C)nn(C)c3=O)c2c1 [Compound 66]
- Kochia plant response rating [1, 15]: 90
- Plant response rating, Kochia [1, 16]: 90
- Plant response rating, Kochia [1, 17]: 98
- Kochia plant response rating [1, 18]: 90
- Chickweed plant response rating [2, 15]: 90
- Plant response rating, Chickweed [2, 16]: 95
- Plant response rating, Chickweed [2, 17]: 95
- Chickweed plant response rating [2, 18]: 95
- Oat, Wild plant response rating [3, 15]: 55
- Plant response rating, Oat, Wild [3, 16]: 90
- Plant response rating, Oat, Wild [3, 17]: 90
- Oat, Wild plant response rating [3, 18]: 80
- Ragweed plant response rating [4, 15]: 85
- Plant response rating, Ragweed [4, 16]: 90
- Plant response rating, Ragweed [4, 17]: 100
- Plant response rating, Ragweed [4, 19]: 75
- Plant response rating, Ragweed [4, 20]: 85
- Plant response rating, Ragweed [4, 21]: 90
- Ragweed plant response rating [4, 22]: 95
- Ragweed plant response rating [4, 18]: 85
- Pigweed plant response rating [5, 15]: 95
- Plant response rating, Pigweed [5, 16]: 100
- Plant response rating, Pigweed [5, 17]: 100
- Plant response rating, Pigweed [5, 19]: 100
- Plant response rating, Pigweed [5, 20]: 100
- Plant response rating, Pigweed [5, 21]: 100
- Pigweed plant response rating [5, 22]: 100
- Pigweed plant response rating [5, 18]: 98
- Barnyardgrass plant response rating [6, 15]: 15
- Plant response rating, Barnyardgrass [6, 16]: 30
- Plant response rating, Barnyardgrass [6, 17]: 35
- Plant response rating, Barnyardgrass [6, 19]: 0
- Plant response rating, Barnyardgrass [6, 20]: 20
- Plant response rating, Barnyardgrass [6, 21]: 40
- Barnyardgrass plant response rating [6, 22]: 70
- Barnyardgrass plant response rating [6, 18]: 20
- Soybean plant response rating [7, 15]: 0
- Plant response rating, Soybean [7, 16]: 10
- Plant response rating, Soybean [7, 17]: 5
- Plant response rating, Soybean [7, 19]: 0
- Plant response rating, Soybean [7, 20]: 0
- Plant response rating, Soybean [7, 21]: 0
- Soybean plant response rating [7, 22]: 0
- Soybean plant response rating [7, 18]: 10
- Galium plant response rating [8, 15]: 90
- Plant response rating, Galium [8, 16]: 95
- Plant response rating, Galium [8, 17]: 95
- Plant response rating, Galium [8, 19]: 90
- Plant response rating, Galium [8, 20]: 90
- Plant response rating, Galium [8, 21]: 95
- Galium plant response rating [8, 22]: 98
- Galium plant response rating [8, 18]: 95
- Velvetleaf plant response rating [9, 15]: 55
- Plant response rating, Velvetleaf [9, 16]: 85
- Plant response rating, Velvetleaf [9, 17]: 95
- Plant response rating, Velvetleaf [9, 19]: 15
- Plant response rating, Velvetleaf [9, 20]: 60
- Plant response rating, Velvetleaf [9, 21]: 70
- Velvetleaf plant response rating [9, 22]: 85
- Velvetleaf plant response rating [9, 18]: 75
- Ryegrass, Italian plant response rating [10, 15]: 60
- Plant response rating, Ryegrass, Italian [10, 16]: 85
- Plant response rating, Ryegrass, Italian [10, 17]: 85
- Plant response rating, Ryegrass, Italian [10, 19]: 55
- Plant response rating, Ryegrass, Italian [10, 20]: 50
- Plant response rating, Ryegrass, Italian [10, 21]: 80
- Ryegrass, Italian plant response rating [10, 22]: 90
- Ryegrass, Italian plant response rating [10, 18]: 80
- Nutsedge, Yellow plant response rating [11, 15]: 65
- Plant response rating, Nutsedge, Yellow [11, 16]: 85
- Plant response rating, Nutsedge, Yellow [11, 17]: 85
- Plant response rating, Nutsedge, Yellow [11, 19]: 35
- Plant response rating, Nutsedge, Yellow [11, 20]: 35
- Plant response rating, Nutsedge, Yellow [11, 21]: 30
- Nutsedge, Yellow plant response rating [11, 22]: 65
- Nutsedge, Yellow plant response rating [11, 18]: 70
- Blackgrass plant response rating [12, 15]: 10
- Plant response rating, Blackgrass [12, 16]: 40
- Plant response rating, Blackgrass [12, 17]: 60
- Plant response rating, Blackgrass [12, 19]: 10
- Plant response rating, Blackgrass [12, 20]: 30
- Plant response rating, Blackgrass [12, 21]: 35
- Blackgrass plant response rating [12, 22]: 30
- Blackgrass plant response rating [12, 18]: 15
- Plant response rating, Galium [13, 23]: 90
- Galium plant response rating [13, 24]: 90
- Plant response rating, Blackgrass [14, 23]: 60
- Blackgrass plant response rating [14, 24]: 80
